PMC5825103 (PLoS ONE, 2018)

Legend:
PR-LBD = molecular target: T1, PR-LBD (Homo sapiens, UniProt P06401); test: filtration radioligand binding (Eurofins Cerep); conditions: competition binding; ± SD
T1 construct: PR-LBD (catalogue number 2341) were performed by Eurofins Cerep SA, France; purchased Eurofins Cerep SA, France 2341
T1 sequence (P06401 679-913 limits assumed): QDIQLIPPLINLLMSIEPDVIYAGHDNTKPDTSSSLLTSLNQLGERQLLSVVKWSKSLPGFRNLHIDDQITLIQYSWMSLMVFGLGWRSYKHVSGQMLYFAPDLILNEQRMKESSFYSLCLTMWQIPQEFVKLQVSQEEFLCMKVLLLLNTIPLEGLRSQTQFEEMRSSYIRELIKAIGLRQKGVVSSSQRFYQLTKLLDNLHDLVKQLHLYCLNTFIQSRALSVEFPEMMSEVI
Method: Filtration based radioligand binding assays for human GR-LBD (catalogue number 0469), AR-LBD (catalogue number 0933) and PR-LBD (catalogue number 2341) were performed by Eurofins Cerep SA, France.

[1] = test system: male Sprague Dawley rats on low salt diet; test: acute urinary electrolyte excretion in salt deprived rats; assay type: in vivo, rat; conditions: 100 mg kg^-1 AZD9977 co-administered with 10 or 30 mg kg^-1 eplerenone
Method: Experimental procedures to assess electrolytes effects in vivo were approved by the local ethics review committee on animal experiments in the Gothenburg region (EA 141-2010). […] Animals had environmental enrichment such as nest pads, nesting box, running ladder and aspen chew sticks. Rats were fed a low salt diet ([…] with 0.02% NaCl, […], Sweden) for 72h prior to dosing to increase endogenous aldosterone levels. […] Immediately following dosing, rats were placed in metabolic cages with free access to drinking water but no food. Urine was collected for 8 hours to determine total electrolyte (Na^+ and K^+) content as well as total urinary volume. Urine was collected at room temperature with no additives. Urine was analyzed for Na^+ and K^+ content on a Radiometer ABL 700 blood gas analyzer (Radiometer, Copenhagen, Denmark).

MR = test system: MR; design: method as in PMID 24464876; conditions: eplerenone vs spironolactone; cited from earlier work
[2] = plasma exposure in rat urine electrolyte excretion model (satellite animals, population PK); conditions: average (90% CI)
Method: In the rat urine electrolyte excretion model, satellite pharmacokinetic animals were used with serial plasma sampling to assess drug exposure levels during the study duration. […] Exposure data were analysed using nonlinear mixed effects pharmacokinetic modelling. Based on the final population pharmacokinetic model, the eight hour study window was simulated and mean exposure was retrieved from these simulations. The 90% confidence intervals of the mean exposure levels were obtained by Monte Carlo simulations based on the uncertainty, using the parameter covariance matrix, of pharmacokinetic parameter estimates. 1000 simulations were performed and based on these simulations the 5th, and 95th percentiles were retrieved.

Row | Structure (SMILES) | Ki (PR-LBD) [µM] | Na^+ excretion caused by eplerenone [1] | reduced receptor potency in vitro compared to spironolactone (MR) | Cav,in interval ([2]; oral 3 mg kg^-1, 8 h interval) | Cav,in interval ([2]; oral 10 mg kg^-1, 8 h interval) | Cav,in interval ([2]; oral 30 mg kg^-1, 8 h interval) | Cav,in interval ([2]; oral 100 mg kg^-1, 8 h interval)
1 | CNC(=O)C[C@H]1COc2cc(F)ccc2N1C(=O)c1ccc2c(c1)NC(=O)CO2 [AZD9977, (S)-2-(7-Fluoro-4-(3-oxo-3,4-dihydro-2H-benzo[b][1, 4]oxazine-6-carbonyl)-3,4-dihydro-2H-benzo[b][1, 4]oxazin-3-yl)-N-methylacetamide] | 25.1 | attenuated the Na^+ excretion caused by eplerenone | – | – | – | – | –
2 | COC(=O)[C@@H]1CC2=CC(=O)CC[C@]2(C)[C@@]23O[C@@H]2C[C@@]2(C)[C@@H](CC[C@@]24CCC(=O)O4)[C@H]13 [eplerenone] | – | – | 10–20 fold | 0.41 (0.35;0.47) μM | 1.4 (1.2;1.6) μM | 4.1 (3.6;4.7) μM | 13.6 (11.8;15.6) μM
